Columns and labels:
[1] = system: Schaffer collateral-CA1 pathway of rat hippocampal slices; test: LTP induction in Schaffer collateral-CA1 pathway of hippocampal slices (fEPSP slope); format: cell-based, Wistar rats; conditions: for fEPSP slope: 1.6 μM perfused 6 min (3 min before and 3 min after tetanus)
[2] = system: hippocampal slices taken from young rats; test: Plasticity induced by low-frequency stimulation (LTD) in hippocampal slices; format: cell-based, Wistar rats
Experimental: After decapitation, brains of either adult ([…], for the induction of long-term potentiation) or young (2–3 weeks old, for the induction of long-term depression) Wistar rats were rapidly removed, and the hippocampus was dissected out. Transverse hippocampal slices (450 μm thickness) were immediately placed in an ice-cold cutting buffer containing 124 mM NaCl, 3 mM KCl, 1.0 mM Na2HPO4, 25 mM NaHCO3, 0.5 mM CaCl2, 5.0 mM MgSO4, 10 mM glucose, saturated with 95% O2 and 5% CO2. The slices were then maintained in an interface chamber at room temperature, and perfused at flow rate of 1–2 mL/min with artificial cerebrospinal fluid (ACSF). The composition of ACSF contained 124 mM NaCl, 4.4 mM KCl, 1.0 mM Na2HPO4, 25 mM NaHCO3, 2.0 mM or 2.5 mM CaCl2, 1.0 mM MgSO4, 10 mM glucose, gassed with 95% O2 and 5% CO2. The field Excitatory Postsynaptic Potentials (fEPSP) was evoked by test pulses through a bipolar stimulating electrode placed on the Schaffer collateral/commissural pathway, and recorded from the stratum radiatum of CA1 using a glass micropipette electrode (5–10 MΩ) filled with 2 M NaCl. The test pulse duration was 100 μsec, and test responses were elicited at 0.02 Hz. To record field potentials in the cortico-amygdala pathway, a stimulating electrode was placed in the external capsule, which contained fibers from the auditory cortex to the lateral amygdala. Bicuculine (10 μM) was present in the perfusion solution when the fEPSPs of amygdala were recorded. To increase the effectiveness of fused pyrazolyl compounds that were applied through the perfusion system, the ACSF level in the recording chamber was sufficiently high to cover the hippocampal slices but not to float them. All fused pyrazolyl compounds were perfused in ACSF.
Evoked fEPSPs were recorded and data were analyzed. The initial slope of the fEPSPs was calculated, and the data were expressed as percentages of the average of the base-line slope of the fEPSPs.
Compound 1 on plasticity induced by low-frequency stimulation (LFS): LFS (900 pulses at 1 Hz) was delivered to hippocampal slices taken from young rats ([…]) to induce long-term depression (LTD). Stimulation of hippocampal slices at 1 Hz for 3 min produced no LTD of synaptic transmission. However, this short-duration LFS induced significant LTD in the presence of Compound 1 (83.4±10.9%, n=3). […] A weaker electrical stimulation at 0.02 Hz was delivered in the presence of both nitric oxide donor nitroprusside ([…]) and Compound 1 (1.6 μM). Simultaneous perfusion of the nitric oxide donor nitroprusside (30 μM) and Compound 1 (1.6 μM) induced LTD.

rats (active avoidance) = test: Active avoidance task; format: in vivo
Experimental: For the test of active avoidance, the rat was placed in the dark compartment, facing the door. The door was opened halfway, and the rat had 10 sec to shuttle over the door to lit compartment. Rat was not chosen for this experiment if the rat crossed to the safe side within 10 sec. Foot-shock was turned on at 10 s later. Rat escaped into safe compartment and the door was closed. The retention time on dark shock compartment was measured 48 hr later. The rats were discarded once the rats enter lit compartment within 10 s on the day of context training. Foot-shock was administered 10 s after putting in the dark compartment on day-1. Memory retention was tested on day-2.

[3] = injection 10 min before foot-shock

OCc1ccc(-c2nn(Cc3ccccc3)c3ccccc23)o1 [Compound 1, 1-benzyl-3-(5′-hydroxymethyl-2′-furyl)-indazole]
LTP when compound added after tetanus ([1]; 1.6 μM added to ACSF 10 min after 2 trains of strong tetanus (100 Hz/1 sec)): not further potentiated | fEPSP slope, simultaneous application of AP-5 and MCPG ([1]; AP-5 and MCGP applied simultaneously with Compound 1): 111.5±12.3% | LTP induced by Compound 1, concomitant perfusion with L-NAME ([1]; L-NAME 300 μM (nitric oxide synthase inhibitor)): significantly attenuated | LTP induced by Compound 1, with Zinc protoporphyrin ([1]; Zinc protoporphyrin 1 μM (heme oxygenase inhibitor)): did not affect | fEPSP ([1]; fEPSP slope 60 min after weak tetanus (50 Hz, 0.5 s), 1.6 μM perfused 3 min before and 3 min after tetanus): 172.9% | fEPSP slope ([1]; strong tetanus (two 100 Hz, 1 sec trains 20 sec apart), at 50 min after tetanus, % of base-line slope): 404.7±34.9% | fEPSP slope ([1]; weak tetanus (20 Hz, 0.5 sec train), at 1 hr): 172.9±10.7% | fEPSP slope, co-perfused with AP5 ([1]; weak tetanus (50 Hz/0.5 s), with AP5 100 μM (NMDA receptor antagonist)): 142.1±13.5% | fEPSP slope, co-perfused with KT5823 ([1]; weak tetanus (50 Hz/0.5 s), with KT 5823 2 μM (protein kinase G inhibitor)): 112.9±5.4% | fEPSP slope, co-perfused with ODQ ([1]; weak tetanus (50 Hz/0.5 s), with ODQ 5 μM (soluble guanylyl cyclase inhibitor)): 107.8±3.9% | LTP induced by Compound 1, co-perfused with MCPG ([1]; with MCPG 100 μM): reduced | plasticity with perfusion during LFS ([2]; 1.6 μM perfused for 15 min during LFS (900 pulses at 1 Hz)): reversed the LTD plasticity into LTP | potentiation of fEPSP at 0.02 Hz stimulation, substance alone ([2]; 0.02 Hz stimulation, alone): produced no potentiation | plasticity at 0.02 Hz with nitric oxide donor nitroprusside ([2]; 0.02 Hz stimulation, simultaneous perfusion of nitroprusside (30 μM) and Compound 1 (1.6 μM)): induced LTD | fEPSP (LTD) after short-duration LFS ([2]; 1 Hz for 3 min, in the presence of Compound 1, young rats): 83.4±10.9% | memory enhancement effect induced by Compound 1, with KT5823 (rats (active avoidance); KT5823 i.c.v. 0.2 nmole): effectively inhibited | memory enhancement effect induced by Compound 1, with L-NAME (rats (active avoidance); L-NAME i.c.v. 1 mmole): effectively inhibited | escape latency from the shock- to the safe-compartment (rats (active avoidance); [3]): decrease | retention of memory (rats (active avoidance); [3]): noticeable increase

Source: patent publication US7049334B2, “Enhancement of learning and memory and treatment of amnesia” (priority 2001, dated 2006)
